Assay results published in US6491950B1, “Controlled release pharmaceutical composition” (Kos Pharmaceuticals, Inc., priority 2000, dated 2002).
“Also recorded” adds a separate entry of the source. Where a name gives a salt, the structure may show the parent alone. Each block holds one molecule with its values, some of them ahead of it.

Test: In vitro dissolution procedure, USP Basket Method (Apparatus I)
Assay type: physicochemical
Conditions: 24 hours; for release of medicament, dependence on amount of high melting glyceride: Example 1, FIG. 1, Compritol 888 15-30%, hydrochloride; for release of medicament, dependence on type of medicament: Example 6, FIG. 6, 20% medicament, Methocel E10 P 3%, polysorbate 80 1%; for release of medicament, dependence on amount of surfactant: Example 7, FIG. 7, polysorbate 80 2.5, 5.0, 10.0%
Method: The dissolution release of the formulations was determined by the USP Basket Method (Apparatus I). By this method, samples are tested in a 40 mesh basket rotating at 100 RPM. Release media were used in a volume of 900 ml per dissolution vessel, maintained at 37° C. Double distilled deionized water was generally used as the dissolution media. Some formulations were also evaluated in simulated gastric fluid (0.1N hydrochloric acid, pH=1.2, no enzyme added) or simulated intestinal fluid (0.05 M phosphate buffer, pH=7.4, no enzyme added). Nine samples of 3.0 ml each were automatically collected at 2, 4, 6, […], 12, 14, 20 and 24 hours. The absorbency of the samples were measured at the peak wavelength in the ultraviolet spectrum with Hewliet Packard model 8453 spectrophotometer. The absorbency values were converted to percentages of added medicament that was released.

Compound: Cn1c(=O)c2c(ncn2C)n(C)c1=O [caffeine]
release of medicament, dependence on cellulosic polymer (Example 9, FIG. 9, caffeine 20%, Methocel E10 P, Methocel K100M, Ethocel P20 or no polymer, olive oil): faster when the formulation contains Methocel K100M than Ethocel P20; also recorded: sustained over a 24 hour period

release of medicament, dependence on type of medicament (Compritol 888 25%, soybean oil): released faster than niacin or caffeine
Compound: OCCOCCN1CCN(C(c2ccccc2)c2ccc(Cl)cc2)CC1 (stereo not shown) [hydroxyzine hydrochloride]
release of medicament, dependence on amount of high melting glyceride (hydroxyzine HCl 20%, soybean oil): moderately faster as the amount of higher fatty acid ester in the formulation is increased over a small range and then levels off
release of medicament, dependence on amount of high melting glyceride (hydroxyzine HCl 20%, soybean oil, listed as hydroxyzine HCl): consistent sustained release over 24 hours
release of medicament, dependence on type of oil (Example 2, FIG. 2, hydroxyzine HCl 20%, Compritol 888 25%, oil 51%): sustained at the same level over the period
release of medicament, dependence on type of high melting glyceride (Example 3, FIG. 3, hydroxyzine HCl 20%, glyceride 25%, soybean oil): fastest with Precirol AT05 slowest with Compritol 888/WL 2155, and intermediate with Compritol 888
release of medicament, dependence on type of cellulosic polymer (Example 4, FIG. 4, hydroxyzine HCl 20%, polymer 3% (Methocel E10 P, K15M, A4M, Ethocel P20)): released considerably faster from a formulation of Methocel K15M than Ethocel P20

release of medicament, dependence on type of medicament (Compritol 888 25%, soybean oil): released faster than niacin or caffeine
Compound: COCCc1ccc(OCC(O)CNC(C)C)cc1 (stereo not shown) [metoprolol tartrate]
release of medicament, low hydroxypropyl ether celluloses (Example 11, FIG. 11, metoprolol tartrate 20%, LH 11, LH 22 or LH 30 3%, olive oil): sustained over a 24 hour period; also recorded: essentially the same for each cellulosic polymer of the formulation
release of medicament, dependence on amount of Compritol 888 (Example 12, FIG. 12, metoprolol tartrate 20%, Compritol 888 15-35%, olive oil): sustained over 24 hours; also recorded: higher at the higher amounts of compritol

release of medicament, dependence on amount of surfactant (niacin 20%, olive oil, listed as Niacin): sustained over 24 hours
Compound: O=C(O)c1cccnc1 [niacin]
release of medicament, dependence on amount of surfactant (niacin 20%, olive oil): faster the higher the level of the surfactant above a level of about 5.0% of the total amount of the formulation
release of medicament, with or without cellulosic polymer (Example 8, FIG. 8, niacin 20%, Methocel E10 P 3% or none, olive oil): released faster from a formulation containing Methocel E10P than from a formulation devoid of the cellulosic polymer
